Assay results reported in article PMC5131496, “In vitro and in vivo anti-malarial activity of novel harmine-analog heat shock protein 90 inhibitors: a possible partner for artemisinin” (Malaria Journal, 2016).

Target: T1, P. falciparum heat shock protein 90 (PfHsp90) (Plasmodium falciparum, UniProt Q8IC05)
T1 construct: gene PF3D7_0708400
Experiment: bis-ANS fluorescence competitive binding assay with purified recombinant GHKL domain

T1 sequence (Q8IC05 1-211 limits assumed): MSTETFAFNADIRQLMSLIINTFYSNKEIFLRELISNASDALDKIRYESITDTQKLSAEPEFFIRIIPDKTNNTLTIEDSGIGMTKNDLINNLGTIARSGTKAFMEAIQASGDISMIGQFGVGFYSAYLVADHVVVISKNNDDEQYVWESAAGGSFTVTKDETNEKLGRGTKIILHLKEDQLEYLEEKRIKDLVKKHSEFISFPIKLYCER

SMILES | IC50 [µM]
CC1NCCc2c1[nH]c1ccc(Cl)cc21 (centres unmarked) [17A] | 12.2 ± 2.3
CC1NCCc2c1[nH]c1ccc(Br)cc21 (centres unmarked) [21A] | 23.1 ± 8.8
